Source: patent publication US20130059920A1, “HYDROXYTYROSOL BENEFITS MUSCLE DIFFERENTIATION AND MUSCLE CONTRACTION AND RELAXATION” (DSM IP ASSETS, B.V., priority 2009, published 2013)

Legend:
[1] = GSH and MDA in LTE rats; assay type: in vivo, Sprague-Dawley rats; conditions: 25 mg/kg/day, data not shown
[2] = system: genes of calcium signaling and flux; assay: Gene chip analysis of human skeletal muscle biopsies (vastus lateralis), Human Genome U133 Plus 2.0; assay type: in vivo; conditions: 6 weeks, human muscle biopsy
Protocol: Three groups each n=20 were enrolled in the study. The group assignment was randomly done by subject weight across the 3 groups. Each subject received a total of 3 capsules each day over a period of 6 weeks: • Group 1—Placebo: 3 capsules with each 333 mg of modified starch • Group 2—LOW (50 mg/d hydroxytyrosol): 1 capsule with 333 mg investigational product (1 capsule with 50 mg hydroxytyrosol) and 2 capsules with each 333 mg modified starch • Group 3—HIGH (150 mg/d hydroxytyrosol): 3 capsules with each 333mg investigational product ([…])
Muscle biopsy was performed at 2 h after ingestion of the supplements as it had taken 30 min setup time before the tissue can be removed. Two skeletal muscle tissue biopsies were taken at beginning (day 1, baseline sample) of the study and at day 42. The following was assessed in skeletal muscle tissue: 1) global gene expression profile and 2) cellular factors in tissue involved in energy metabolism or other specific pathways.
A muscle biopsy (100 mg) was taken from the vastus lateralis, a thigh muscle.
The skin was cleaned with 10% povidone-iodine (Betadine Solution, Purdue Pharma L.P., Stamford, Conn.) and then anesthetized by injecting 1.5 cc of 1% Lidocaine-HCL into the skin. A 5-8 mm incision was made in the skin and subcutaneous fat, and then approximately 100 mg of muscle tissue was removed using a Bergstrom biopsy needle from the thigh musculature (Dyna Medical, London, Ont. Canada).
The biopsy was trimmed of adipose and connective tissue, weighted and separated into 25 mg and 75 mg, placed into labelled and cooled cryotubes and immediately frozen in liquid nitrogen. Samples are stored at −80° C. for subsequent analysis. The incision site will be sealed using butterfly bandages, then wrapped with a pressure pack to minimize bruising. Approximately 25 mg of muscle tissue was used to determine the effect of the olive product on the gene expression profile involved in the energy metabolism. Neither the Sponsor nor the investigator has performed genetic finger printing and has destroyed any remaining tissue after their testing has been completed.
RNA extraction from frozen tissue samples (skeletal muscle biopsies) as described above was done using Trizol method as followed:
RNA was processed using the 3′IVT Express Kit (Affymetrix, Cat. No. 901229) according to the manual.
Fragmented aRNA for each sample was hybridized onto a Human Genome U133 Plus 2.0 Gene Chip (Affymetrix, Cat. No. 900467).
All CEL files from Affymetrix were uploaded into the analysis software (Partek) using GCRMA. GCRMA is a method of converting CEL files into expression set using the Robust Multi-array Average (RMA) with the help of probe sequence and with GC-content background correction. It is a method for normalizing and summarizing probe-level intensity measurements from Affymetrix GeneChips. Three steps: Background correction, normalization, summarization.
After GCRMA preprocessing of the .CEL files, we exported the log 2-transformed expression values from Partek and imported them into the R statistics software (version 2.9.2, http://www.R-project.org). The 57 subjects for which both a pre- and a post-measurement was available were included in the analysis. We applied an ANCOVA (analysis of covariance) with the baseline measurement as covariate to each of the 54675 probesets. The aim was to compare the treatment effect between the groups, while adjusting for the individual baselines which might differ between subjects. The treatment effect between groups can thus be estimated more precisely since the subject-to-subject variability can be separated from the within-subject variability. The baseline and the end-measurements correlated well with each other within the subjects. […]

[3] = Endurance capacity, treadmill running to exhaustion after 8 weeks long-term exercise (LTE); assay type: in vivo, Sprague-Dawley rats; conditions: exercise (LTE) rats, 25 mg/kg/day by gavage
Protocol: Sprague-Dawley male rats were purchased from a commercial breeder (SLAC, Shanghai). The rats were housed in a temperature—(22-28° C.) and humidity—(60%) controlled animal room and maintained on a 12-h light/12-h dark cycle (light on from 08:00 a.m. to 08:00 p.m.) with free access to food and water throughout the experiments. […] rats weighing 180-200 g were used. At the beginning of experiments, male rats were selected by one week running exercise at low speed (10 m/min, 20 min/day) and those high exercise activity rats were chosen for the experiments. Rats were randomly divided into four groups: Sedentary, Sedentary with HT supplement (25 mg/kg/day), Endurance exercise and Endurance exercise with HT supplement (25 mg/kg/day). HT was administrated by gavage 45 min before exercise program for each animal. Rats were run on a motorized treadmill at a speed of 20 m/min and a grade of 5° for 1 hour per day and 6 days per week. After 8 weeks exercise, endurance capacity was measured by treadmill running to exhaustion at a speed of 30 m/min and a grade of 5°. Exhaustion was defined as the inability to maintain running and avoid sound and light irritation.

OCCc1ccc(O)c(O)c1 [hydroxytyrosol, 3,4-dihydroxyphenylethanol]
GSH [1]: no effect
MDA [1]: no effect
baseline-corrected fold-change vs placebo: ATPase, Ca++ transporting, cardiac muscle, fast twitch 1 ([2]; 50 mg HT/d): 1.11
baseline-corrected fold-change vs placebo: ATPase, Ca++ transporting, plasma membrane 2 ([2]; 50 mg HT/d): 1.06
baseline-corrected fold-change vs placebo: ATPase, Ca++ transporting, plasma membrane 4 ([2]; 50 mg HT/d): 1.10
baseline-corrected fold-change vs placebo: ATPase, Ca++ transporting, type 2C, member 1 ([2]; 50 mg HT/d): 1.07
baseline-corrected fold-change vs placebo: C2 calcium-dependent domain containing 3 ([2]; 50 mg HT/d): 1.13
baseline-corrected fold-change vs placebo: EF-hand calcium binding domain 2 ([2]; 50 mg HT/d): 1.09
baseline-corrected fold-change vs placebo: EF-hand calcium binding domain 7 ([2]; 50 mg HT/d): 1.00
baseline-corrected fold-change vs placebo: S100 calcium binding protein A4 ([2]; 50 mg HT/d): 1.07
baseline-corrected fold-change vs placebo: S100 calcium binding protein A8 ([2]; 50 mg HT/d): 1.08
baseline-corrected fold-change vs placebo: S100 calcium binding protein A10 ([2]; 50 mg HT/d): 1.06
baseline-corrected fold-change vs placebo: S100 calcium binding protein A13 ([2]; 50 mg HT/d): 1.05
baseline-corrected fold-change vs placebo: S100 calcium binding protein B ([2]; 50 mg HT/d): 1.05
baseline-corrected fold-change vs placebo: annexin A1 ([2]; 50 mg HT/d): 1.11
baseline-corrected fold-change vs placebo: annexin A2 ([2]; 50 mg HT/d): 1.13
baseline-corrected fold-change vs placebo: annexin A2 pseudogene 2 ([2]; 50 mg HT/d): 1.09
baseline-corrected fold-change vs placebo: annexin A6 ([2]; 50 mg HT/d): 1.06
baseline-corrected fold-change vs placebo: annexin A11 ([2]; 50 mg HT/d): 1.04
baseline-corrected fold-change vs placebo: cadherin, EGF LAG seven-pass G-type receptor 2 (flamingo homolog, Drosophila) ([2]; 50 mg HT/d): 1.08
baseline-corrected fold-change vs placebo: calbindin 2 ([2]; 50 mg HT/d): 1.06
baseline-corrected fold-change vs placebo: calcineurin-like phosphoesterase domain containing 1 ([2]; 50 mg HT/d): 1.11
baseline-corrected fold-change vs placebo: calcium and integrin binding family member 2 ([2]; 50 mg HT/d): 0.98
baseline-corrected fold-change vs placebo: calcium binding protein 4 ([2]; 50 mg HT/d): 1.07
baseline-corrected fold-change vs placebo: calcium binding protein 39 ([2]; 50 mg HT/d): 1.07
baseline-corrected fold-change vs placebo: calcium channel, voltage-dependent, L type, alpha 1S subunit ([2]; 50 mg HT/d): 1.03
baseline-corrected fold-change vs placebo: calcium channel, voltage-dependent, beta 1 subunit ([2]; 50 mg HT/d): 1.02
baseline-corrected fold-change vs placebo: calcium channel, voltage-dependent, gamma subunit 1 ([2]; 50 mg HT/d): 1.03
baseline-corrected fold-change vs placebo: calcium channel, voltage-dependent, gamma subunit 6 ([2]; 50 mg HT/d): 1.06
baseline-corrected fold-change vs placebo: calcium/calmodulin-dependent protein kinase II delta ([2]; 50 mg HT/d): 1.09
baseline-corrected fold-change vs placebo: calcium/calmodulin-dependent protein kinase kinase 2, beta ([2]; 50 mg HT/d): 1.11
baseline-corrected fold-change vs placebo: calmodulin 1 (phosphorylase kinase, delta) ([2]; 50 mg HT/d): 1.14
baseline-corrected fold-change vs placebo: calmodulin 3 (phosphorylase kinase, delta) ([2]; 50 mg HT/d): 1.09
baseline-corrected fold-change vs placebo: calmodulin regulated spectrin-associated protein 1 ([2]; 50 mg HT/d): 1.04
baseline-corrected fold-change vs placebo: calnexin ([2]; 50 mg HT/d): 0.98
baseline-corrected fold-change vs placebo: calpain 2, (m/II) large subunit ([2]; 50 mg HT/d): 1.04
baseline-corrected fold-change vs placebo: calpain 3, (p94) ([2]; 50 mg HT/d): 0.99
baseline-corrected fold-change vs placebo: calreticulin ([2]; 50 mg HT/d): 1.06
baseline-corrected fold-change vs placebo: protein phosphatase 3, catalytic subunit, alpha isozyme ([2]; 50 mg HT/d): 1.09
baseline-corrected fold-change vs placebo: regulator of calcineurin 1 ([2]; 50 mg HT/d): 1.07
baseline-corrected fold-change vs placebo: ryanodine receptor 3 ([2]; 50 mg HT/d): 1.23
baseline-corrected fold-change vs placebo: striatin, calmodulin binding protein 3 ([2]; 50 mg HT/d): 1.13
baseline-corrected fold-change vs placebo: ATPase, Ca++ transporting, cardiac muscle, fast twitch 1 ([2]; 150 mg HT/d): 1.196
baseline-corrected fold-change vs placebo: ATPase, Ca++ transporting, plasma membrane 2 ([2]; 150 mg HT/d): 1.174
baseline-corrected fold-change vs placebo: ATPase, Ca++ transporting, plasma membrane 4 ([2]; 150 mg HT/d): 1.023
baseline-corrected fold-change vs placebo: ATPase, Ca++ transporting, type 2C, member 1 ([2]; 150 mg HT/d): 1.080
baseline-corrected fold-change vs placebo: C2 calcium-dependent domain containing 3 ([2]; 150 mg HT/d): 1.078
baseline-corrected fold-change vs placebo: EF-hand calcium binding domain 2 ([2]; 150 mg HT/d): 1.080
baseline-corrected fold-change vs placebo: EF-hand calcium binding domain 7 ([2]; 150 mg HT/d): 1.075
baseline-corrected fold-change vs placebo: S100 calcium binding protein A4 ([2]; 150 mg HT/d): 1.114
baseline-corrected fold-change vs placebo: S100 calcium binding protein A8 ([2]; 150 mg HT/d): 1.056
baseline-corrected fold-change vs placebo: S100 calcium binding protein A10 ([2]; 150 mg HT/d): 1.045
baseline-corrected fold-change vs placebo: S100 calcium binding protein A13 ([2]; 150 mg HT/d): 1.064
baseline-corrected fold-change vs placebo: S100 calcium binding protein B ([2]; 150 mg HT/d): 1.019
baseline-corrected fold-change vs placebo: annexin A1 ([2]; 150 mg HT/d): 1.070
baseline-corrected fold-change vs placebo: annexin A2 ([2]; 150 mg HT/d): 1.047
baseline-corrected fold-change vs placebo: annexin A2 pseudogene 2 ([2]; 150 mg HT/d): 1.007
baseline-corrected fold-change vs placebo: annexin A6 ([2]; 150 mg HT/d): 1.062
baseline-corrected fold-change vs placebo: annexin A11 ([2]; 150 mg HT/d): 1.065
baseline-corrected fold-change vs placebo: cadherin, EGF LAG seven-pass G-type receptor 2 (flamingo homolog, Drosophila) ([2]; 150 mg HT/d): 1.030
baseline-corrected fold-change vs placebo: calbindin 2 ([2]; 150 mg HT/d): 1.006
baseline-corrected fold-change vs placebo: calcineurin-like phosphoesterase domain containing 1 ([2]; 150 mg HT/d): 1.070
baseline-corrected fold-change vs placebo: calcium and integrin binding family member 2 ([2]; 150 mg HT/d): 1.114
baseline-corrected fold-change vs placebo: calcium binding protein 4 ([2]; 150 mg HT/d): 1.024
baseline-corrected fold-change vs placebo: calcium binding protein 39 ([2]; 150 mg HT/d): 1.082
baseline-corrected fold-change vs placebo: calcium channel, voltage-dependent, L type, alpha 1S subunit ([2]; 150 mg HT/d): 1.080
baseline-corrected fold-change vs placebo: calcium channel, voltage-dependent, beta 1 subunit ([2]; 150 mg HT/d): 1.125
baseline-corrected fold-change vs placebo: calcium channel, voltage-dependent, gamma subunit 1 ([2]; 150 mg HT/d): 1.087
baseline-corrected fold-change vs placebo: calcium channel, voltage-dependent, gamma subunit 6 ([2]; 150 mg HT/d): 1.178
baseline-corrected fold-change vs placebo: calcium/calmodulin-dependent protein kinase II delta ([2]; 150 mg HT/d): 1.113
baseline-corrected fold-change vs placebo: calcium/calmodulin-dependent protein kinase kinase 2, beta ([2]; 150 mg HT/d): 1.033
baseline-corrected fold-change vs placebo: calmodulin 1 (phosphorylase kinase, delta) ([2]; 150 mg HT/d): 1.153
baseline-corrected fold-change vs placebo: calmodulin 3 (phosphorylase kinase, delta) ([2]; 150 mg HT/d): 1.041
baseline-corrected fold-change vs placebo: calmodulin regulated spectrin-associated protein 1 ([2]; 150 mg HT/d): 1.089
baseline-corrected fold-change vs placebo: calnexin ([2]; 150 mg HT/d): 1.066
baseline-corrected fold-change vs placebo: calpain 2, (m/II) large subunit ([2]; 150 mg HT/d): 1.053
baseline-corrected fold-change vs placebo: calpain 3, (p94) ([2]; 150 mg HT/d): 1.082
baseline-corrected fold-change vs placebo: calreticulin ([2]; 150 mg HT/d): 1.044
baseline-corrected fold-change vs placebo: protein phosphatase 3, catalytic subunit, alpha isozyme ([2]; 150 mg HT/d): 1.048
baseline-corrected fold-change vs placebo: regulator of calcineurin 1 ([2]; 150 mg HT/d): 1.009
baseline-corrected fold-change vs placebo: ryanodine receptor 3 ([2]; 150 mg HT/d): 1.355
baseline-corrected fold-change vs placebo: striatin, calmodulin binding protein 3 ([2]; 150 mg HT/d): 1.024
improvement of endurance capacity [3]: 35%
